Laboratory results taken from paper PMC7485652 (Saudi Journal of Medicine & Medical Sciences, 2020).
Like-named read-outs stand apart in the source and are kept apart here.

What was measured:
[1] = test system: CYP3A4; settings: cited from earlier work
[2] = for plasma level of quetiapine / hmax: male rats; for hmax: mean±SD
[3] = cited from earlier work; for decrease of plasma concentration of quetiapine: administration of lamotrigine
[4] = with probenecid, by inhibition of UGT glucuronidation enzymes; cited from earlier work
[5] = quetiapine 50 mg/kg oral after probenecid 50 mg/kg oral
[6] = quetiapine alone, 50 mg/kg single oral dose

In the case of CCCC(CCC)C(=O)O [Valproic acid], the “inhibition of CYP3A4” value [1] is listed as “weak inhibitor”.

With OCCOCCN1CCN(C2=Nc3ccccc3Sc3ccccc32)CC1 [Quetiapine] the “plasma level of quetiapine” value [2, 5] was 323 ± 128 ng/mL, the hmax [2, 5] was 0.63 ± 0.3 h and the “plasma level of quetiapine” value [2, 6] was 155 ± 37 ng/mL. For the same compound, the hmax [2, 6] was 5 ± 2 h, the “difference in half-life of quetiapine between groups” value ([2]; quetiapine plus probenecid vs quetiapine alone, rats) was “no significant difference” and the “decrease of plasma concentration of quetiapine” value ([3]; study with 22 patients) was 58%. For the same compound, the “decrease of plasma concentration of quetiapine” value ([3]; study with 144 patients) was 17%, the “increase of plasma level of quetiapine” value ([3]; co-administered valproic acid, elderly patients) was 77% and the “increase of Cmax of quetiapine” value ([3]; coadministered with sodium divalproex, adult patients, nonsignificant) was 17%. The “change in AUC τ of quetiapine” value ([3]; coadministered with sodium divalproex, adult patients) was “no changes” and the “effect of coadministration on quetiapine” value ([3]; coadministered with valproic acid, adult patients, ref Santoro et al. 20) was “nonsignificant results”.

For Cc1cc2c(s1)Nc1ccccc1N=C2N1CCN(C)CC1 [olanzapine], the level of olanzapine [4] is given as “increases”.
